Measured values published in publication PMC9377232 (Journal of Enzyme Inhibition and Medicinal Chemistry, 2022).
Marks after values point to notes of the source that are not given here.

Legend:
stomach = assay: Acute ulcerogenic side effect; format: in vivo; details: mice; for Abou Zeit Har Score (ulcer index): intraperitoneal, indomethacin 5 mg/kg, celecoxib 20 mg/kg, means ± SD; for Gastric mucosa finding (ulcers) on examination: stomach examined after sacrifice
COX-1 mRNA = assay: Real-time PCR of inflamed paw tissue, COX-1 gene expression; format: in vivo, Mouse; details: paw tissue after formalin test; 2^-ΔΔCt method; means ± SD
COX-2 mRNA = assay: Real-time PCR of inflamed paw tissue, COX-2 gene expression; format: in vivo, Mouse; details: paw tissue after formalin test; 2^-ΔΔCt method; means ± SD
LOX mRNA = assay: Real-time PCR of inflamed paw tissue, LOX gene expression; format: in vivo, Mouse; details: paw tissue after formalin test, 2^-ΔΔCt method, means ± SD

Compound | Abou Zeit Har Score (ulcer index) (stomach) | Gastric mucosa finding (ulcers) on examination (stomach) | COX-1 mRNA relative expression (real-time PCR) (COX-1 mRNA) | COX-2 mRNA relative expression (real-time PCR) (COX-2 mRNA) | LOX mRNA relative expression (real-time PCR) (LOX mRNA) | LOX mRNA relative expression (real-time PCR) (LOX mRNA; listed as indomethacin)
Cc1ccc(-c2cc(C(F)(F)F)nn2-c2ccc(S(N)(=O)=O)cc2)cc1 [Celecoxib] | 0.6 ± 0.58 | preserved the integrity of the mucosa |  |  |  | 
COc1ccc2c(c1)c(CC(=O)O)c(C)n2C(=O)c1ccc(Cl)cc1 [Indomethacin] | 11.2 ± 1.64 | large ulcers | 0.82 ± 0.02 | 0.17 ± 0.01^a | 1.32 ± 0.01 | not affected
